Reference: US20040102325A1, “Phenylpropynyloxypyridine herbicides” (priority 2000, published 2004)

Experiments:
Type in all cases: in vivo
Veronica [1] = assay: Post-emergence herbicidal action, Veronica; set-up: key: 1=total damage; 9=no action; details: post-emergence (2- to 3-leaf stage), 1000 g a.i/ha, 2 to 3 weeks, scale of nine ratings (1=total damage, 9=no action)
Description: (§1) Monocotyledonous and dicotyledonous test plants are sown in standard soil in pots, and at the 2- to 3-leaf stage are sprayed with an aqueous suspension of the test compounds (prepared from a wettable powder (Example F3, b) according to WO 97/34485) or with an emulsion of the test compounds (prepared from an emulsifiable concentrate (Example F1, c) according to WO 97/34485) at an optimum rate of application of 500 litres of water/ha). The test plants are then grown on in the greenhouse under optimum conditions. After a test duration of 2 to 3 weeks, the test is evaluated in accordance with a scale of nine ratings (1=total damage, 9=no action). Ratings of from 1 to 4 (especially from 1 to 3) indicate good to very good herbicidal action. Test plants: Panicum, Euphorbia, Sida, Amaranthus, Chenopodium, Stellaria, Veronica.

Stellaria [2] = assay: Post-emergence herbicidal action, Stellaria; set-up: key: 1=total damage; 9=no action; details: post-emergence (2- to 3-leaf stage), 1000 g a.i/ha, 2 to 3 weeks, scale of nine ratings (1=total damage, 9=no action)
Description: as §1

Euphorbia = assay: Post-emergence herbicidal action, Euphorbia; set-up: key: 1=total damage; 9=no action; details: post-emergence (2- to 3-leaf stage), 1000 g a.i/ha, 2 to 3 weeks, scale of nine ratings (1=total damage, 9=no action)
Description: as §1

Digitaria = assay: Pre-emergence herbicidal action, Digitaria; set-up: key: 1=total damage; 9=no action; details: 1000 g a.i./ha, 4 weeks, scale of nine ratings (1=total damage, 9=no action)
Text: (§2) Monocotyledonous and dicotyledonous test plants are sown in standard soil in pots. Immediately after sowing, an aqueous suspension of the test compounds (prepared from a wettable powder (Example F3, b) according to WO 97/34485) or an emulsion of the test compounds (prepared from an emulsifiable concentrate (Example F1, c) according to WO 97/34485) is applied by spraying at an optimum rate of application (500 litres of water/ha). The test plants are then cultivated in a greenhouse under optimum conditions. After a test duration of 4 weeks, the test is evaluated in accordance with a scale of nine ratings (1=total damage, 9=no action). Ratings of from 1 to 4 (especially from 1 to 3) indicate good to very good herbicidal action. Test plants: Setaria, Panicum, Digitaria, Amaranthus, Stellaria, Veronica.

Stellaria [3] = assay: Pre-emergence herbicidal action, Stellaria; set-up: key: 1=total damage; 9=no action; details: 1000 g a.i./ha, 4 weeks, scale of nine ratings (1=total damage, 9=no action)
Text: as §2

Amaranthus [4] = assay: Pre-emergence herbicidal action, Amaranthus; set-up: key: 1=total damage; 9=no action; details: 1000 g a.i./ha, 4 weeks, scale of nine ratings (1=total damage, 9=no action)
Text: as §2

Sida = assay: Post-emergence herbicidal action, Sida; details: post-emergence (2- to 3-leaf stage), 1000 g a.i/ha, 2 to 3 weeks, scale of nine ratings (1=total damage, 9=no action)
Description: as §1

Chenopodium = assay: Post-emergence herbicidal action, Chenopodium; set-up: key: 1=total damage; 9=no action; details: post-emergence (2- to 3-leaf stage), 1000 g a.i/ha, 2 to 3 weeks, scale of nine ratings (1=total damage, 9=no action)
Description: as §1

Veronica [5] = assay: Pre-emergence herbicidal action, Veronica; set-up: key: 1=total damage; 9=no action; details: 1000 g a.i./ha, 4 weeks, scale of nine ratings (1=total damage, 9=no action)
Text: as §2

Panicum [6] = assay: Pre-emergence herbicidal action, Panicum; set-up: key: 1=total damage; 9=no action; details: 1000 g a.i./ha, 4 weeks, scale of nine ratings (1=total damage, 9=no action)
Text: as §2

Amaranthus [7] = assay: Post-emergence herbicidal action, Amaranthus; set-up: key: 1=total damage; 9=no action; details: post-emergence (2- to 3-leaf stage), 1000 g a.i/ha, 2 to 3 weeks, scale of nine ratings (1=total damage, 9=no action)
Description: as §1

Panicum [8] = assay: Post-emergence herbicidal action, Panicum; set-up: key: 1=total damage; 9=no action; details: post-emergence (2- to 3-leaf stage), 1000 g a.i/ha, 2 to 3 weeks, scale of nine ratings (1=total damage, 9=no action)
Description: as §1

Setaria = assay: Pre-emergence herbicidal action, Setaria; set-up: key: 1=total damage; 9=no action; details: 1000 g a.i./ha, 4 weeks, scale of nine ratings (1=total damage, 9=no action)
Text: as §2

Structure (SMILES) | Veronica, herbicidal action rating (Veronica [1]) | Stellaria, herbicidal action rating (Stellaria [2]) | Euphorbia, herbicidal action rating (Euphorbia) | Digitaria, herbicidal action rating (Digitaria) | Stellaria, herbicidal action rating (Stellaria [3]) | Amaranthus, herbicidal action rating (Amaranthus [4]) | Sida, herbicidal action rating (Sida) | Chenopodium, herbicidal action rating (Chenopodium) | Veronica, herbicidal action rating (Veronica [5]) | Panicum, herbicidal action rating (Panicum [6]) | Amaranthus, herbicidal action rating (Amaranthus [7]) | Panicum, herbicidal action rating (Panicum [8]) | Setaria, herbicidal action rating (Setaria)
N#CCc1cccc(C#CCOc2ccc(Cl)cn2)c1 [1.007] | 1 | 6 | 2 | 1 | 1 | 1 | 4 | 1 | 7 | 1 | 1 | 2 | 5
COc1cc(F)cnc1OCC#Cc1cccc(CC#N)c1 [1.015] | 2 | 1 | 1 | 2 | 1 | 1 | 3 | 1 | 4 | 2 | 1 | 1 | 7
N#CCc1cccc(C#CCOc2ccc(Br)cn2)c1 [1.008] | 2 | 4 | 2 | 1 | 4 | 1 | 3 | 1 | 1 | 1 | 1 | 7 | 7
COc1cc(Cl)cnc1OCC#Cc1ccccc1 [1.094] | 3 | 2 | 1 |  | 1 | 3 | 2 | 3 | 1 |  | 1 | 2 | 
N#CCc1cccc(C#CCOc2ncc(F)cc2F)c1 [1.009] | 2 | 2 | 1 | 1 | 3 | 2 | 2 | 1 |  |  | 1 | 2 | 
COc1cc(Cl)cnc1OCC#Cc1cccc(CC#N)c1 [1.016] | 1 | 1 | 1 | 1 | 1 | 1 | 2 | 1 | 1 | 2 | 1 | 2 | 4
N#CCc1cccc(C#CCOc2ncc(Cl)cc2OC(F)F)c1 [1.025] | 4 | 4 | 2 | 2 | 1 | 1 | 3 | 7 | 1 | 1 | 2 |  | 1
N#CCc1cccc(C#CCOc2ncc(Cl)cc2F)c1 [1.011] | 2 | 2 | 2 | 1 | 1 | 1 | 2 | 1 | 1 | 1 | 2 | 2 | 6
COc1cc(C)cnc1OCC#Cc1cccc(CC#N)c1 [1.022] | 3 | 4 | 2 |  | 2 | 1 | 3 | 3 | 1 | 2 | 3 | 6 | 
Cc1ccc(OC(F)F)c(OCC#Cc2cccc(CC#N)c2)n1 [1.024] | 3 | 1 | 2 |  | 1 | 1 | 2 | 1 | 1 |  | 1 |  | 1
COc1cc(Br)cnc1OCC#Cc1cccc(CC#N)c1 [1.017] | 2 | 1 | 1 | 2 | 1 | 1 | 2 | 1 | 2 | 2 | 2 | 4 | 5
